What was measured:
[1] = Absorbability of powder preparation for nasal administration using cynomolgus monkeys, Test-1 (RIA); conditions: cynomolgus monkey, in vivo, sc, 13 ug/kg
Method: (§1) An anti-rabbit IgG goat serum was then added, and the mixture was allowed to stand for 1 hour at 4° C. The resulting sample was centrifuged and the radioactivity (gamma-ray) of the precipitate was measured by a gamma counter.
Each additive was added to the pharmaceutical composition in amounts of 0.5%, 1.0%, 10% and 50% with respect to the total weight of the preparation.
The bioavailability was determined by comparing the AUC after nasal administration with the AUC after subcutaneous administration.

[2] = Absorbability of powder preparation for nasal administration using dogs (RIA); conditions: beagle, dog, in vivo, 50 ug/kg
Method: as §1
As a control, one additive-free sample of the composition for nasal administration was prepared.

[3] = in vivo; conditions: male, SD (Crj: CD), rat, plasma
Method: as §1
Male SD rats, aged 7 to 9 weeks and weighing about 250 g (Crj: CD, Charles River Japan Inc.,), were kept in a metal cage with a day/night cycle of 12 hours while maintaining the temperature at 22±5° C. and the humidity at 30 to 70%. The rats were allowed to feed freely on solid feed and tap water and were fasted for 24 hours prior to the test (3 animals per group).
[…] The blood was collected into a tube containing anticoagulant and enzyme inhibitor at 0, 5, 10, 15, 20, 30, 60, and 90 minutes after administration and was centrifuged to obtain plasma. […] For subcutaneous administration, the sample solution for subcutaneous administration (about 15 μg/mL) was subcutaneously administered in the back of the rats using a syringe at a dosage of 1 mL/kg.

[4] = system: blood glucose level; test: Blood glucose level decreasing effect of nasally administered incretin hormones in glucose-loaded rats; format: in vivo; conditions: nasal powder about 100 μg polypeptide, 15 min after dosing, 10 min after 0.5 g/kg i.v. glucose, control 196
Method: As for the composition containing incretin hormones, the blood glucose level fell as compared with the control group. Moreover, also the incretin hormones, the blood glucose level fell when composition containing 5% corn starch is added compared with when 5% corn starch is not added.

[5] = background statement; cited from earlier work

For `CC[C@H](C)[C@H](NC(=O)[C@H](Cc1ccccc1)NC(=O)[C@H](CCC(=O)O)NC(=O)[C@H](CCCCN)NC(=O)[C@H](C)NC(=O)[C@H](C)NC(=O)[C@H](CCC(N)=O)NC(=O)CNC(=O)[C@H](CCC(=O)O)NC(=O)[C@H](CC(C)C)NC(=O)[C@H](Cc1ccc(O)cc1)NC(=O)[C@H](CO)NC(=O)[C@H](CO)NC(=O)[C@@H](NC(=O)[C@H](CC(=O)O)NC(=O)[C@H](CO)NC(=O)[C@@H](NC(=O)[C@H](Cc1ccccc1)NC(=O)[C@@H](NC(=O)CNC(=O)[C@H](CCC(=O)O)NC(=O)[C@H](C)NC(=O)[C@@H](N)Cc1c[nH]cn1)[C@@H](C)O)[C@@H](C)O)C(C)C)C(=O)N[C@@H](C)C(=O)N[C@@H](Cc1c[nH]c2ccccc12)C(=O)N[C@@H](CC(C)C)C(=O)N[C@H](C(=O)N[C@@H](CCCCN)C(=O)NCC(=O)N[C@@H](CCCNC(=N)N)C(N)=O)C(C)C` [GLP-1(7-36)NH2, GLP-1 (7-36)NH2], the AUC(0-inf) [1] was 3.23 ± 0.5 ng·h/mL, the Cmax [1] was 6.37 ± 2.54 ng/mL and the AUC(0-inf) [2] was 5.15 ± 5.13 ng·h/mL. It also gave a Cmax [2] of 20.4 ± 3.48 ng/mL, an AUC ([3]; inhaled or intranasal, 1 ug/kg) of 2.47 ± 1.44 ng·h/mL and a Cmax ([3]; inhaled or intranasal, 1 ug/kg) of 4.7 ± 3.28 ng/mL. It also gave an AUC ([3]; sc, 15 ug/kg) of 3.82 ± 0.58 ng·h/mL and a Cmax ([3]; sc, 15 ug/kg) of 6.68 ± 0.86 ng/mL.
In the case of GLP-1 (7-37) [GLP-1(7-37)], the “blood glucose level (Mean)” value ([4]; composition: 5% corn starch) is reported as 146 mg/dL and the “blood glucose level (Mean)” value ([4]; composition: No additive) is reported as 170 mg/dL.
With “[Val^8]-GLP-1 (7-37) (HVEGTFTSDVSSYLEGQAAKEFIAWLVKGRG; Glucagon-like peptide 1(7-37); UniProt P01275 98-128, looked up, variant A8V) [[Val^8]-GLP-1(7-37)]” the “blood glucose level (Mean)” value ([4]; composition: 5% corn starch) was 147 mg/dL and the “blood glucose level (Mean)” value ([4]; composition: No additive) was 168 mg/dL.
With Exendin-4 the “blood glucose level (Mean)” value ([4]; composition: 5% corn starch) was 151 mg/dL and the “blood glucose level (Mean)” value ([4]; composition: No additive) was 166 mg/dL.
For casein, the “isoelectric point (pI)” value [5] is listed as “about 4.6”.
With “[Lys^26, ε-NH{γ-Glu(N-α-palmitoyl)}]-GLP-1 (7-37)” the “blood glucose level (Mean)” value ([4]; composition: 5% corn starch) was 154 mg/dL and the “blood glucose level (Mean)” value ([4]; composition: No additive) was 184 mg/dL.
